From patent publication US7183322B2, “Remedy for hypertension” (Taisho Pharmaceutical Co., Ltd., priority 2002, dated 2007)

Assays:
[1] = system: Dahl salt-sensitive hypertension rats; experiment: Dahl salt-sensitive hypertension rat model, systolic blood pressure; type: in vivo; conditions: for % change in blood pressure: one hour after administration, systolic
Excerpt: (Creation of Dahl Salt-sensitive Hypertension Rat Model)
Dahl salt-sensitive hypertension rats (7 weeks old) were used in the experiment. They were fed a 4% NaCl high-salt chow (0.6% for normal chow), but were allowed to drink water without any restriction. At two weeks after high-salt loading, the animals confirmed to develop hypertension were divided into the following 4 groups for use in the experiment.
(Experimental Animal Groups)
After loading the high-salt chow for two weeks as described above, an acute experiment was performed. On the day of the experiment, the systolic blood pressure (before administration) was measured for each animal under non-anesthesia conditions using a noninvasive sphygmomanometer. The animals were then administered orally with the solvent or SEA0400(3, 10, or 30 mg/kg) and monitored over time for their systolic blood pressure.

[2] = system: Brain microsomal Na+/Ca2+ exchanger; experiment: Brain microsomal Na+/Ca2+ exchanger (Na-dependent 45Ca uptake); type: biochemical; conditions: rat brain microsomes; read-out: Inhibitory activity against Na+/Ca2+ exchange (Na-dependent 45Ca uptake), IC50 value, Brain
Description: Method of Measuring for Brain Microsomal Na^+/Ca^2+ Exchanger
Brain microsomes (1.5 mg/ml) obtained from 8-week-old rats were pre-treated with 160 mM NaCl-containing buffer to cause Na loading into membrane vesicles. This suspension was diluted 50-fold with 20 μM ^45CaCl2-containing buffer to induce ^45Ca uptake, followed by dilution with the buffer (0° C.) to stop the reaction. The membrane vesicles were immediately collected on a nitrocellulose filter. Subsequently, ^45Ca trapped inside the membrane vesicles was determined by liquid scintillation counting. The above assay for Na^+/Ca^2+ exchange activity in brain microsomes was performed according to the procedures described in J. Biol. Chem., vol. 257, p. 5111 (1982).

[3] = biological target: renal cortex-derived Na+/Ca2+ exchanger (NCX1) (Rattus norvegicus, UniProt Q01728); experiment: Rat renal cortex-derived BLMVs Na+/Ca2+ exchange activity (Na-dependent 45Ca uptake); type: biochemical; conditions: read-out: Inhibitory activity against Na+/Ca2+ exchange (Na-dependent 45Ca uptake), IC50 value, Renal cortex
Description: BLMVs were prepared from rat renal cortex and assayed for Na^+/Ca^2+ exchange activity according to the procedures described in Am. J. Physiol., vol. 266, p. F785 (1994). After being excised from rats, the kidneys were placed in ice-cold sucrose buffer ([…], 0.1 mM PMSF, 10 mM Tris-HCl (pH 7.6)) and decapsulated. The isolated cortex was then finely minced in the sucrose buffer and homogenized sequentially with a Dounce-type homogenizer and a Polytron-type homogenizer, followed by centrifugation at 2500 g for 15 minutes to collect the supernatant. Centrifugation was repeated at 24000 g for 20 minutes to collect the white fluffy portion of the pellet. After further addition of the sucrose buffer, the collected fraction was homogenized with a Dounce-type homogenizer, supplemented with Percoll and then centrifuged at 30000 g for 35 minutes to collect the middle layer. After addition of buffer (100 mM KCl, 100 mM mannitol, 5 mM HEPES-Tris (pH 7.4)), centrifugation was carried out at 34000 g for 30 minutes to collect the loose white pellet (BLMVs). […] Subsequently, the filter was washed twice with 2 ml stop solution and then the amount of ^45Ca trapped inside the BLMVs was determined by using liquid scintillation method.

[4] = biological target: T1, Canine cardiac sarcolemmal vesicle Na+/Ca2+ exchanger (Canis lupus familiaris, UniProt P23685); experiment: Canine cardiac sarcolemmal vesicle Na+/Ca2+ exchanger (Na-dependent 45Ca uptake); type: biochemical; conditions: canine cardiac sarcolemmal vesicles; read-out: Inhibitory activity against Na+/Ca2+ exchange (Na-dependent 45Ca uptake), IC50 value, Cardiac sarcolemma
T1 construct: Canine cardiac sarcolemmal vesicles (0.5 mg/ml) were prepared by centrifugal fractionation; from tissue; host or cells: canine cardiac sarcolemmal vesicles
Description: Method of Measuring for Canine Cardiac Sarcolemmal Vesicle Na^+/Ca^2+ Exchanger
Canine cardiac sarcolemmal vesicles (0.5 mg/ml) were prepared by centrifugal fractionation as described in Methods enzymology, vol. 157, p. 85 (1988) and suspended in Solution A (20 mM MOPS-Tris (pH 7.4), 160 mM NaCl or KCl), followed by incubation at room temperature for about one hour to cause Na or K loading into the vesicles. This suspension was diluted 50-fold with 20 μM ^45CaCl2-containing buffer to induce ^45Ca uptake, followed by dilution with the buffer (0° C.) to stop the reaction. The membrane vesicles were immediately collected on a nitrocellulose filter. Subsequently, ^45Ca trapped inside the membrane vesicles was determined by liquid scintillation counting. The Na^+/Ca^2+ exchange activity was evaluated by subtracting the value obtained for K loading from the value obtained for Na loading. The above assay for Na^+/Ca^2+ exchange activity in canine cardiac sarcolemmal vesicles was performed according to the procedures described in J. Biol. Chem., vol. 257, p. 5111 (1982).

Row | Compound | % change in blood pressure ([1]; 3 mg/kg oral) [%] | Reduction in blood pressure compared with the solvent group ([1]; 10 mg/kg and 30 mg/kg groups, oral) | % change in blood pressure ([1]; 10 mg/kg oral) [%] | % change in blood pressure ([1]; 30 mg/kg oral) [%] | IC50 [2] [µM] | IC50 [3] [µM] | IC50 [4] [µM]
1 | CCOc1ccc(Oc2ccc(OCc3cc(F)ccc3F)cc2)c(N)c1 [SEA0400, 2-[4-[(2,5-difluorophenyl)methoxy]phenoxy]-5-ethoxyaniline] | −9.5±1.8 | significant reduction in blood pressure | −12.0±0.9 | −12.7±3.4 | 0.2 |  | 
2 | N=C(N)SCCc1ccc(OCc2ccc([N+](=O)[O-])cc2)cc1 [K-BR7943, 2-[2-[4-[nitrobenzyloxy]phenyl]ethyl]isothio-ureamethanesulfonate] |  |  |  |  | 11 | 6.8 | 7
